Each block holds one compound with its values, some of them ahead of it.
What was measured:
Assay type in all cases: physicochemical
[1] = Elution test of drug from cylindrical molded body (paddle, UV absorbance); conditions: ethenzamide; molded body 50 MPa; paddle 100 rpm, 900 mL Pharmacopeia I liquid
Protocol: Cellulose particles A were used. A commercially available ibuprofen (an active component indicated as being almost completely insoluble in water according to Japanese Pharmacopeia 14) was dissolved in polyethylene glycol (Macrogol 400 from Sanyo Kasei Co., Ltd.) at a proportion of 1:5, and then diluted by 10 with ethanol. This was added to the cellulose particles A to result in 10% by weight. The mixture was stirred in a die. A die (from KIKUSUI SEISAKUSHO LTD, made with SUS 2, 3) was filled with 0.2 g of the obtained powder, and a circular flat punch (from KIKUSUI SEISAKUSHO LTD, made with SUS 2, 3) with a diameter of 0.8 cm was used to apply compression until the pressure reached 100 MPa (PCM-1A (Commercial Name) from AIKOH ENGINEERING CO., LTD. was used with a compression rate of 1 cm/min). The cylindrical molded body was released after the target pressure was maintained for 10 seconds. Fluid component effusion on the surface of the molded body was observed, drug elution from the cylindrical molded body (elution tests were conducted with a JASCO Corporation ultraviolet absorption spectrometer at paddle speed 100 rpm and 900 mL of Pharmacopeia I liquid, in which fluid absorbance was measured and the elution rate was calculated 3 minutes after) and disintegration time of the cylindrical molded bodies was measured. […]

[2] = Repose angle (Sugihara type device); conditions: low fluidity component model without cellulose
Protocol: Using a Sugihara type repose angle measuring device (slit size: depth 10 mm×width 50 mm×height 140 mm, a protractor was placed at the position of 50 mm width), the dynamic self-fluidity was measured when cellulose powder was dropped to the slit at 3 g/minute using a quantitative feeder. The angle between the bottom of the device and the top layer of the cellulose powder is the repose angle.

[3] = Reactivity to a drug: aspirin decomposition rate after storage mixed with cellulose; conditions: 60° C., two weeks, closed vial
Protocol: (12) Reactivity to a Drug
Aspirin (Japanese Pharmacopeia crystalline aspirin was treated with a small grinder φ0.5 mm, with 1 pass treatment) and each cellulose sample was mixed at 5/5 (total 0.5 g) in dry conditions and then placed in a glass sample vial and mixed. The vial was stored in an oven (Made by Tabai Espec Corp. Perfect Oven (Commercial Name)) with the cap tightly closed (at 60° C.) for two weeks and then the decomposition rate was measured. Ferric (III) […] sulfate 12 hydrate 8 g was placed in a 100 ml measuring flask, mixed with pure water to bring the volume up to 100 ml to make a coloring test solution. 0.25 g of stored aspirin (total 0.5 g of the blended powder) was introduced to a 50 ml measuring flask, mixed with ethanol to bring the volume up to 50 ml and the mixture was shaken for 5 minutes. Thus obtained ethanol solution was filtered, the filtrate was transferred to a 100 ml measuring flask and ethanol was added to bring the volume up to 100 ml. One milliliter of this ethanol solution and 1 ml of the coloring test solution described above were introduced to a 50 ml measuring flask, mixed with pure water to bring the volume up to 50 ml and the absorption was measured at the wavelength of 532 nm using a UV absorption meter (made by JASCO Corporation). The decomposition rate was calculated from the following formula. […]

Elution rate after 1 hour [1]: 9%
SMILES: CCOc1ccccc1C(N)=O [Comparative Example 76, ethenzamide]

Repose angle Before the addition of cellulose [2]: 55 °
SMILES: CC(=O)Nc1ccc(O)cc1 [Component model C, Acetaminophen]

aspirin decomposition rate [3]: 15%
SMILES: CC(=O)Oc1ccccc1C(=O)O [aspirin, Aspirin]

Source: patent US8771742B2, “Porous cellulose aggregate and molding composition thereof” (Asahi Kasei Chemicals Corporation, priority 2005, dated 2014)
